Data on two compounds can be found in ChEMBL document CHEMBL3102833, “Design and synthesis of guanylthiourea derivatives as potential inhibitors of Plasmodium falciparum dihydrofolate reductase enzyme” (Bioorg Med Chem Lett, 2014).

Each structure is given as a SMILES string.

The nature of the test: Inhibition of Plasmodium falciparum recombinant dihydrofolate reductase expressed in Escherichia coli BL21 (DE3).

Regarding `N=C(N)/N=C(\N)SCc1cccc(CS/C(N)=N/C(=N)N)c1`, the IC50 turned out to be 100 µM.

Consider `N=C(N=C(N)N)SCc1cccc(I)c1`, for which the IC50 came to 0.4 µM.
